# Where two headings read alike, the source gives them in different places. Positions of bridges follow the written chain, without caps; N, C: chain ends. Non-standard residues stand in square brackets, D forms with d. Residues, ends and D or L forms follow the SMILES beside them. Lys(N3) = [N-]=[N+]=NCCCC[C@H](N)C(=O)O; R8 = C=CCCCCCC[C@@](C)(N)C(=O)O; Cba = N[C@@H](CC1CCC1)C(=O)O; S5 = C=CCCC[C@](C)(N)C(=O)O; βAla = NCCC(=O)O
# Assays:
# [1] = Experimental LogD (partition coefficient); conditions: for logD: not stated, Partition Coeff LogD
# [2] = Lactate dehydrogenase (LDH) release assay; format: cell-based
# Method in brief: (§1)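 LDH release, fluorometric membrane-integrity read-out; HCT116 with stable p53-responsive β-lactamase reporter; 8000 cells/well; 0.5% DMSO final; geometric mean, n≥3 biological replicates.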
# HCT116 cells = assay: Lactate dehydrogenase (LDH) release assay; format: cell-based
# Method in brief: as §1
# [3] = Nanoclick permeability assay
# Method in brief: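 Azido-peptide permeability was read as loss of NanoBRET signal (donor 450 nm, acceptor 610 nm) after adding NanoBret618-azide at 10 μM final.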
# [4] = Solubility assay (kinetic solubility, PBS pH 7); format: physicochemical; conditions: for solubility kinetic: pH 7, aqueous buffer, kinetic from dmso stock, read-out: Solubility
# Method in brief: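 Std: 10 mM stock → 100 µM in ACN/MeOH/DMSO (10:80:10). Sol. [µM] = (sample peak area / std peak area) × std conc.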
# [5] = 0% FBS 4Hr, read-out: LDH: Cytotoxicity assay EC50
# [6] = 10% FBS 4Hr, read-out: LDH: Cytotoxicity assay EC50
# [7] = 4 hours, 0% serum, read-out: LDH Cytotoxicity assay EC50
SMILES,logD [1],"EC50 [2, 5] [nM]",LDH: Cytotoxicity assay % Effect (HCT116 cells; 0% FBS 4Hr) [%],LDH: Cytotoxicity assay % Effect (HCT116 cells; 0% FBS 16Hr) [%],EPSA (physchem) [A^2],cell entry EC50 [3] [nM],"solubility kinetic ([4]; pH 7, PBS) [µM]",Partition Coeff LogD [1],Partition Coeff LogD ([1]; experimental),"EC50 [2, 6] [nM]",LDH: Cytotoxicity assay % Effect (HCT116 cells; 10% FBS 4Hr) [%],Solubility [4],"Solubility ([4]; pH 7, PBS)","EC50 [2, 7] [nM]"
"CC(=O)N[C@@H](CCCCN=[N+]=[N-])C(=O)NCCC(=O)N[C@@H](C)C(=O)N[C@H](C(=O)N[C@@H](Cc1ccccc1)C(=O)N[C@]1(C)CCCCCCC=CCCC[C@@](C)(C(=O)N[C@@H](CO)C(=O)N[C@@H](C)C(=O)N[C@@H](C)C(N)=O)NC(=O)[C@H](CC2CCC2)NC(=O)[C@H](CCC(N)=O)NC(=O)[C@H](C)NC(=O)[C@H](Cc2c[nH]c3ccccc23)NC(=O)[C@H](Cc2ccc(O)cc2)NC(=O)[C@H](CCC(=O)O)NC1=O)[C@@H](C)O [MP-952, AZIDE-ATSP-7041 (L1A)]",2.73,> 50000,11.9,8.95,223,192,109,,,,,,,
"CC(=O)N[C@@H](CCCCN=[N+]=[N-])C(=O)NCCC(=O)N[C@@H](CC(C)C)C(=O)N[C@@H](C)C(=O)N[C@@H](Cc1ccccc1)C(=O)N[C@]1(C)CCCCCCC=CCCC[C@@](C)(C(=O)N[C@@H](CO)C(=O)N[C@@H](C)C(=O)N[C@@H](C)C(N)=O)NC(=O)[C@H](CC2CCC2)NC(=O)[C@H](CCC(N)=O)NC(=O)[C@H](C)NC(=O)[C@H](Cc2c[nH]c3ccccc23)NC(=O)[C@H](Cc2ccc(O)cc2)NC(=O)[C@H](CCC(=O)O)NC1=O [MP-953, AZIDE-ATSP-7041 (T2A)] (Ac-[Lys(N3)][βAla]LAF[R8]EYWAQ[Cba][S5]SAA-NH2; staple 6-13)",2.93,> 50000,11.05,-0.16,221,494,186,,,,,,,
"CC(=O)N[C@@H](CCCCN=[N+]=[N-])C(=O)NCCC(=O)N[C@@H](CC(C)C)C(=O)N[C@H](C(=O)N[C@@H](Cc1ccccc1)C(=O)N[C@]1(C)CCCCCCC=CCCC[C@@](C)(C(=O)N[C@@H](CO)C(=O)N[C@@H](C)C(=O)N[C@@H](C)C(N)=O)NC(=O)[C@H](CC2CCC2)NC(=O)[C@H](CCC(N)=O)NC(=O)[C@H](C)NC(=O)[C@H](Cc2c[nH]c3ccccc23)NC(=O)[C@H](Cc2ccc(O)cc2)NC(=O)[C@H](C)NC1=O)[C@@H](C)O [MP-954, AZIDE-ATSP-7041 (E5A)] (Ac-[Lys(N3)][βAla]LTF[R8]AYWAQ[Cba][S5]SAA-NH2; staple 6-13)",,> 50000,9.323,-0.76,205,217,,Poorly Behaved,P.B.,> 50000,15.23,P.B.,Poorly Behaved,
"CC(=O)N[C@@H](CCCCN=[N+]=[N-])C(=O)NCCC(=O)N[C@@H](CC(C)C)C(=O)N[C@H](C(=O)N[C@@H](Cc1ccccc1)C(=O)N[C@]1(C)CCCCCCC=CCCC[C@@](C)(C(=O)N[C@@H](CO)C(=O)N[C@@H](C)C(=O)N[C@@H](C)C(N)=O)NC(=O)[C@H](CC2CCC2)NC(=O)[C@H](C)NC(=O)[C@H](C)NC(=O)[C@H](Cc2c[nH]c3ccccc23)NC(=O)[C@H](Cc2ccc(O)cc2)NC(=O)[C@H](CCC(=O)O)NC1=O)[C@@H](C)O [MP-955, AZIDE-ATSP-7041 (Q9A)] (Ac-[Lys(N3)][βAla]LTF[R8]EYWAA[Cba][S5]SAA-NH2; staple 6-13)",2.94,> 50000,21.34,,215,582,86.5,,,> 50000,-4.376,,,
"CC(=O)N[C@@H](CCCCN=[N+]=[N-])C(=O)NCCC(=O)N[C@@H](C)C(=O)N[C@@H](C)C(=O)N[C@@H](Cc1ccccc1)C(=O)N[C@]1(C)CCCCCCC=CCCC[C@@](C)(C(=O)N[C@@H](CO)C(=O)N[C@@H](C)C(=O)N[C@@H](C)C(N)=O)NC(=O)[C@H](CC2CCC2)NC(=O)[C@H](CCC(N)=O)NC(=O)[C@H](C)NC(=O)[C@H](Cc2c[nH]c3ccccc23)NC(=O)[C@H](Cc2ccc(O)cc2)NC(=O)[C@H](CCC(=O)O)NC1=O [MP-957, AZIDE-ATSP-7041 (L1A,T2A)] (Ac-[Lys(N3)][βAla]AAF[R8]EYWAQ[Cba][S5]SAA-NH2; staple 6-13)",2.69,17100,25.16,,226,125,101,,,,,,,17100
"CC(=O)N[C@@H](CCCCN=[N+]=[N-])C(=O)NCCC(=O)N[C@@H](C)C(=O)N[C@H](C(=O)N[C@@H](Cc1ccccc1)C(=O)N[C@]1(C)CCCCCCC=CCCC[C@@](C)(C(=O)N[C@@H](CO)C(=O)N[C@@H](C)C(=O)N[C@@H](C)C(N)=O)NC(=O)[C@H](CC2CCC2)NC(=O)[C@H](CCC(N)=O)NC(=O)[C@H](C)NC(=O)[C@H](Cc2c[nH]c3ccccc23)NC(=O)[C@H](Cc2ccc(O)cc2)NC(=O)[C@H](C)NC1=O)[C@@H](C)O [MP-958, AZIDE-ATSP-7041 (L1A,E5A)] (Ac-[Lys(N3)][βAla]ATF[R8]AYWAQ[Cba][S5]SAA-NH2; staple 6-13)",3.13,> 50000,13.33,4.88,207,333,5,,,,,,,
"CC(=O)N[C@@H](CCCCN=[N+]=[N-])C(=O)NCCC(=O)N[C@@H](C)C(=O)N[C@H](C(=O)N[C@@H](Cc1ccccc1)C(=O)N[C@]1(C)CCCCCCC=CCCC[C@@](C)(C(=O)N[C@@H](CO)C(=O)N[C@@H](C)C(=O)N[C@@H](C)C(N)=O)NC(=O)[C@H](CC2CCC2)NC(=O)[C@H](C)NC(=O)[C@H](C)NC(=O)[C@H](Cc2c[nH]c3ccccc23)NC(=O)[C@H](Cc2ccc(O)cc2)NC(=O)[C@H](CCC(=O)O)NC1=O)[C@@H](C)O [MP-959, AZIDE-ATSP-7041 (L1A,Q9A)] (Ac-[Lys(N3)][βAla]ATF[R8]EYWAA[Cba][S5]SAA-NH2; staple 6-13)",2.79,976,12.11,5.8,218,126,106,,,,,,,980
"CC(=O)N[C@@H](CCCCN=[N+]=[N-])C(=O)NCCC(=O)N[C@@H](C)C(=O)N[C@H](C(=O)N[C@@H](Cc1ccccc1)C(=O)N[C@]1(C)CCCCCCC=CCCC[C@@](C)(C(=O)N[C@@H](C)C(=O)N[C@@H](C)C(=O)N[C@@H](C)C(N)=O)NC(=O)[C@H](CC2CCC2)NC(=O)[C@H](CCC(N)=O)NC(=O)[C@H](C)NC(=O)[C@H](Cc2c[nH]c3ccccc23)NC(=O)[C@H](Cc2ccc(O)cc2)NC(=O)[C@H](CCC(=O)O)NC1=O)[C@@H](C)O [MP-960, AZIDE-ATSP-7041 (L1A,S12A)] (Ac-[Lys(N3)][βAla]ATF[R8]EYWAQ[Cba][S5]AAA-NH2; staple 6-13)",2.76,> 50000,17.36,,221,286,102,,,,,,,
"CC(=O)N[C@@H](CCCCN=[N+]=[N-])C(=O)NCCC(=O)N[C@@H](CC(C)C)C(=O)N[C@@H](C)C(=O)N[C@@H](Cc1ccccc1)C(=O)N[C@]1(C)CCCCCCC=CCCC[C@@](C)(C(=O)N[C@@H](CO)C(=O)N[C@@H](C)C(=O)N[C@@H](C)C(N)=O)NC(=O)[C@H](CC2CCC2)NC(=O)[C@H](CCC(N)=O)NC(=O)[C@H](C)NC(=O)[C@H](Cc2c[nH]c3ccccc23)NC(=O)[C@H](Cc2ccc(O)cc2)NC(=O)[C@H](C)NC1=O [MP-961, AZIDE-ATSP-7041 (T2A,E5A)] (Ac-[Lys(N3)][βAla]LAF[R8]AYWAQ[Cba][S5]SAA-NH2; staple 6-13)",,> 50000,4.443,,206,272,,Poorly Behaved,P.B.,,,P.B.,Poorly Behaved,
"CC(=O)N[C@@H](CCCCN=[N+]=[N-])C(=O)NCCC(=O)N[C@@H](CC(C)C)C(=O)N[C@@H](C)C(=O)N[C@@H](Cc1ccccc1)C(=O)N[C@]1(C)CCCCCCC=CCCC[C@@](C)(C(=O)N[C@@H](CO)C(=O)N[C@@H](C)C(=O)N[C@@H](C)C(N)=O)NC(=O)[C@H](CC2CCC2)NC(=O)[C@H](C)NC(=O)[C@H](C)NC(=O)[C@H](Cc2c[nH]c3ccccc23)NC(=O)[C@H](Cc2ccc(O)cc2)NC(=O)[C@H](CCC(=O)O)NC1=O [MP-962, AZIDE-ATSP-7041 (T2A,Q9A)] (Ac-[Lys(N3)][βAla]LAF[R8]EYWAA[Cba][S5]SAA-NH2; staple 6-13)",2.96,> 50000,4.327,,216,77.6,77.5,,,,,,,
"CC(=O)N[C@@H](CCCCN=[N+]=[N-])C(=O)NCCC(=O)N[C@@H](CC(C)C)C(=O)N[C@@H](C)C(=O)N[C@@H](Cc1ccccc1)C(=O)N[C@]1(C)CCCCCCC=CCCC[C@@](C)(C(=O)N[C@@H](C)C(=O)N[C@@H](C)C(=O)N[C@@H](C)C(N)=O)NC(=O)[C@H](CC2CCC2)NC(=O)[C@H](CCC(N)=O)NC(=O)[C@H](C)NC(=O)[C@H](Cc2c[nH]c3ccccc23)NC(=O)[C@H](Cc2ccc(O)cc2)NC(=O)[C@H](CCC(=O)O)NC1=O [MP-963, AZIDE-ATSP-7041 (T2A,S12A)] (Ac-[Lys(N3)][βAla]LAF[R8]EYWAQ[Cba][S5]AAA-NH2; staple 6-13)",2.97,> 50000,11.69,-0.52,220,177,100,,,,,,,

# Reference: article PMC10786919, “Design-rules for stapled peptides with in vivo activity and their application to Mdm2/X antagonists” (Nature Communications, 2024)
